Source: PubChem BioAssay AID720660 (The Scripps Research Institute Molecular Screening Center, 2013)
Calls of active or inactive are those of the source.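 Rule for the calls: active = EC50 of 10 µM or lower, the dose giving half of maximal activation; inactive = the rest.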

Test system: MG132 cells, BRM-dependent luciferase reporter, 24 h
Assay: dose-dependent BRM function restoration – cell-based, luminescence, dose response, late-stage follow-up (AID 720660)

Row | SMILES | EC50
1 | Oc1ccccc1OCc1nc2ccccc2s1 | > 91.2 µM (inactive)
2 | Cc1nc(NC(=O)c2cccc(Br)c2)sc1C | > 91.2 µM (inactive)
3 | Cc1ccc(Nc2nc(-c3ccccc3)c(C)s2)cc1 | > 91.2 µM (inactive)
4 | Cc1cc(C)c2nc(NC(=O)C(C)C)sc2c1 | > 91.2 µM (inactive)

Further lines, results first:

Row | EC50 | SMILES
5 | > 91.2 µM (inactive) | COc1ccc(-c2nc(C#N)c(NC3CC3)o2)cc1
6 | > 91.2 µM (inactive) | O=C(NCC1(c2nc(-c3ccccc3)cs2)CCOCC1)c1cccc(-c2noc(C(F)(F)F)n2)c1
7 | > 91.2 µM (inactive) | Clc1ccc(Cc2nc(-c3ccccc3)cs2)cc1
